We go through 23 compounds from patent US20260258050A1, “IMMUNOMODULATOR” (HITGEN INC., priority 2023, published 2026).

The target of one experiment is T1, Human IL-17AF (Homo sapiens, UniProt Q16552+Q96PD4).
T1 construct: purchased Sino Biological Inc. CT047-H08H
T1 sequence (Q16552 24-155): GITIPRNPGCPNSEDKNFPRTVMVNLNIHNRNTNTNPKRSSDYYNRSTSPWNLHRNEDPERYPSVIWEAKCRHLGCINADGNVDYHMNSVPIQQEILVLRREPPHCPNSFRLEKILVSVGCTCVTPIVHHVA
T1 sequence (Q96PD4 31-163): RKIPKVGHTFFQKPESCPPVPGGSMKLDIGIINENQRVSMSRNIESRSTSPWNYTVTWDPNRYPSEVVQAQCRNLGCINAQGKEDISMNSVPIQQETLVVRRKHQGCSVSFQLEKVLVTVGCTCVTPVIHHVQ
The experiment is described as follows: IL-17AF ELISA (competitive ELISA, IL-17AF/IL-17Ra receptor-ligand binding). As to conditions: human IL-17AF coated plate, human IL-17Ra, read-out: IC50, inhibitory activity of compounds on human IL-17AF. The gist of the method: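 Inhibitors were first pre-incubated 10 min at 25 °C with plate-bound IL-17AF (coated at 0.625 μg/ml, PBS pH 7.4) before a 30-min exposure to IL-17Ra added from a 100 nM solution. Receptor capture read via anti-Fc HRP, TMB, A450. Residual activity normalized to blank/DMSO wells; IC50 by log(inhibitor)-normalized response, variable slope.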
A general note: ELISA stands for enzyme-linked immunosorbent assay.

For the next experiment, the target named is T2, Human IL-17A (Homo sapiens, UniProt Q16552).
T2 sequence (Q16552 20-155 limits assumed): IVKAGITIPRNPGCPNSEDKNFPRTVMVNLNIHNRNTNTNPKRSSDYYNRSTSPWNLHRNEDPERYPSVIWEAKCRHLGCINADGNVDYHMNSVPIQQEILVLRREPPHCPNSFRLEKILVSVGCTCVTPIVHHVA
The experiment is described as follows: Inhibition of human IL-17A protein-induced GROα/CXCL1 production in HT-29 cells. Further details: purchased R&D 317-ILB; host or cells: added exogenously to HT-29 cells. The conditions noted are these: 30 ng/mL human IL-17A protein, 48 h, GROα in supernatant by ELISA kit, read-out: Inhibitory IC50 of compounds on HT-29 cell GROα/CXCL1. The format is cell-based. The gist of the method: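 Compound dilutions were preincubated 1 h at 37 °C with 30 ng/mL human IL-17A, then added to HT-29 cells (5×10^4/well) for 48 h at 37 °C. GROα in supernatant quantified by ELISA; IC50 for inhibition of its production. Positive control: IL-17A antibody at […].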

As to `CCn1nccc1C(=O)N[C@H](C(=O)Nc1cc2c(cc1F)-c1c(n[nH]c1C)CC(=O)N(C)C2)C(C1CC1)C1CC1` [compound 133], the IC50 on Human IL-17AF and at Human IL-17A was 100 to 500 nM throughout.

As to `Cc1[nH]nc2c1-c1cc(F)c(NC(=O)[C@@H](NC(=O)c3ccnn3C(C)C)C(C3CC3)C3CC3)cc1CN(C1CC1)C(=O)C2` [compound 136], the IC50 on Human IL-17AF and on Human IL-17A was no more than 100 nM in each case.

Regarding `CCN1CCc2n[nH]c(C)c2-c2cc(F)c(NC(=O)[C@@H](NC(=O)c3ccnn3C(C)C)C(C3CC3)C3CC3)cc2C1` [compound 156], the IC50 on Human IL-17AF and on Human IL-17A was 100 to 500 nM in each case.

Consider `Cc1[nH]nc2c1-c1cc(F)c(NC(=O)[C@@H](NC(=O)c3ccnn3C(C)C)C(C3CC3)C3CC3)cc1CN(CC(C)(F)F)C(=O)C2` [compound 148], for which the IC50 at Human IL-17AF was 100 to 500 nM; on Human IL-17A, no more than 100 nM.

Consider `Cc1[nH]nc2c1-c1cc(F)c(NC(=O)[C@@H](NC(=O)c3ccnn3C(C)C)C(C3CC3)C3CC3)cc1CN(CC(C)(F)F)CC2` [compound 160], for which the figures for the IC50 at Human IL-17AF and at Human IL-17A were 100 to 500 nM and no more than 100 nM, respectively.

`Cc1[nH]nc2c1-c1cc(F)c(NC(=O)[C@@H](NC(=O)c3ccnn3C(C)C)C(C3CC3)C3CC3)cc1CN(CC(F)(F)F)C(=O)C2` [compound 152]: the IC50 on Human IL-17AF is 100 to 500 nM; on Human IL-17A, no more than 100 nM.

Regarding `CCn1nccc1C(=O)N[C@H](C(=O)Nc1cc2c(cc1F)-c1c(n[nH]c1C)CCN(CC(C)(F)F)C2)C(C1CC1)C1CC1` [compound 161], the IC50 on Human IL-17AF and at Human IL-17A was no more than 100 nM each time.

For `CCn1nccc1C(=O)N[C@H](C(=O)Nc1ccc2c(c1)COCCc1n[nH]c(C)c1-2)C(C1CC1)C1CC1` [compound 3], the IC50 at Human IL-17AF and on Human IL-17A was no more than 100 nM throughout.

Turning to `Cc1[nH]nc2c1-c1cc(F)c(NC(=O)[C@@H](NC(=O)c3ccnn3C(C)C)C(C3CC3)C3CC3)cc1CN(C)C(=O)C2` [compound 132], the IC50 on Human IL-17AF is 100 to 500 nM; on Human IL-17A, no more than 100 nM.

As to `Cc1[nH]nc2c1-c1cc(F)c(NC(=O)[C@@H](NC(=O)c3ccnn3C(C)C)C(C3CC3)C3CC3)cc1CN(CC(F)F)C(=O)C2` [compound 144], the IC50 on Human IL-17AF is 100 to 500 nM; on Human IL-17A, no more than 100 nM.

As for `CCn1nccc1C(=O)N[C@H](C(=O)Nc1cc2c(cc1F)-c1c(n[nH]c1C)CC(=O)N(C(C)C)C2)C(C1CC1)C1CC1` [compound 151], the IC50 at Human IL-17AF and at Human IL-17A was no more than 100 nM in each case.

Consider `CCN1Cc2cc(NC(=O)[C@@H](NC(=O)c3ccnn3CC)C(C3CC3)C3CC3)c(F)cc2-c2c(n[nH]c2C)CC1=O` [compound 143], for which the IC50 at Human IL-17AF and at Human IL-17A was no more than 100 nM each time.

`Cc1[nH]nc2c1-c1cc(F)c(NC(=O)[C@@H](NC(=O)c3ccnn3C(C)C)C(C3CC3)C3CC3)cc1CN(CC(F)(F)F)CC2` [compound 164]: the IC50 at Human IL-17AF was 100 to 500 nM; on Human IL-17A, no more than 100 nM.

For the compound `Cc1[nH]nc2c1-c1cc(F)c(NC(=O)[C@@H](NC(=O)c3ccnn3C(C)C)C(C3CC3)C3CC3)cc1CN(C(C)C)C(=O)C2` [compound 150], the IC50 at Human IL-17AF and on Human IL-17A was no more than 100 nM in each case.

Consider `Cc1[nH]nc2c1-c1cc(F)c(NC(=O)[C@@H](NC(=O)c3ccnn3C(C)C)C(C3CC3)C3CC3)cc1CN(CC(F)F)CC2` [compound 158], for which the IC50 on Human IL-17AF is 100 to 500 nM; at Human IL-17A, no more than 100 nM.

Take `CCn1nccc1C(=O)N[C@H](C(=O)Nc1cc2c(cc1F)-c1c(n[nH]c1C)CC(=O)N(CC(F)F)C2)C(C1CC1)C1CC1` [compound 145]: the IC50 at Human IL-17AF and at Human IL-17A was no more than 100 nM in each case.

`CCn1nccc1C(=O)N[C@H](C(=O)Nc1cc2c(cc1F)-c1c(n[nH]c1C)CC(=O)N(CC(C)(F)F)C2)C(C1CC1)C1CC1` [compound 149]: the IC50 on Human IL-17AF and at Human IL-17A was no more than 100 nM in each case.

Regarding `CCn1nccc1C(=O)N[C@H](C(=O)Nc1cc2c(cc1F)-c1c(n[nH]c1C)CCN(CC(F)F)C2)C(C1CC1)C1CC1` [compound 159], the IC50 on Human IL-17AF and at Human IL-17A was no more than 100 nM throughout.

Regarding `Cc1[nH]nc2c1-c1cc(F)c(NC(=O)[C@@H](NC(=O)c3ccnn3C(C)C)C(C3CC3)C3CC3)cc1CN(C1CC1)CC2` [compound 165], the IC50 at Human IL-17AF is 100 to 500 nM; on Human IL-17A it was no more than 100 nM.

Turning to `Cc1[nH]nc2c1-c1ccc(NC(=O)[C@@H](NC(=O)c3ccnn3C3CC3)C(C3CC3)C3CC3)cc1COCC2` [compound 6], the IC50 on Human IL-17AF and on Human IL-17A was 100 to 500 nM each time.

Turning to `Cc1[nH]nc2c1-c1cnc(NC(=O)[C@@H](NC(=O)c3ccnn3C[C@@H]3C[C@H]3F)C(C3CC3)C3CC3)cc1COCC2` [compound 125], the values for the IC50 at Human IL-17AF and on Human IL-17A were 100 to 500 nM and no more than 100 nM, respectively.

For the compound `Cc1[nH]nc2c1-c1cc(F)c(NC(=O)[C@@H](NC(=O)c3ccnn3C(C)C)C(C3CC3)C3CC3)cc1CN(CC1CC1)C(=O)C2` [compound 153], the IC50 on Human IL-17AF and on Human IL-17A was no more than 100 nM throughout.

With `CCN1Cc2cc(NC(=O)[C@@H](NC(=O)c3ccnn3C(C)C)C(C3CC3)C3CC3)c(F)cc2-c2c(n[nH]c2C)CC1=O` [compound 142], the IC50 on Human IL-17AF and at Human IL-17A was no more than 100 nM in each case.
